In PubChem BioAssay AID1259407 (Chemical Carcinogenesis Research Information System (CCRIS), 2018):
Calls of active or inactive are those of the source. No rule for the calls is given here.

System: CCRIS mutagenicity, Ames/micronucleus/aberration tests
Test: CCRIS mutagenicity studies
[1] = Test System: AMES SALMONELLA TYPHIMURIUM, Strain/Indicator: TA98, Metabolic Activation: NONE, Method: STANDARD PLATE
[2] = Test System: AMES SALMONELLA TYPHIMURIUM, Strain/Indicator: TA98, Metabolic Activation: RAT, LIVER, S-9, AROCLOR 1254, Method: STANDARD PLATE
[3] = Test System: AMES SALMONELLA TYPHIMURIUM, Strain/Indicator: TA100, Metabolic Activation: NONE, Method: STANDARD PLATE
[4] = Test System: AMES SALMONELLA TYPHIMURIUM, Strain/Indicator: TA100, Metabolic Activation: RAT, LIVER, S-9, AROCLOR 1254, Method: STANDARD PLATE
[5] = Test System: AMES SALMONELLA TYPHIMURIUM, Strain/Indicator: TA98, Metabolic Activation: NONE, Method: PREINCUBATION
[6] = Test System: AMES SALMONELLA TYPHIMURIUM, Strain/Indicator: TA100, Metabolic Activation: NONE, Method: PREINCUBATION

O=Nc1ccc(NO)cc1
mutagenic call (End Point: IN VITRO CHROMOSOMAL ABERRATIONS, Test System: CHL CELLS, Metabolic Activation: NONE): active; positive (structural changes)
mutagenic call (End Point: IN VITRO CHROMOSOMAL ABERRATIONS, Test System: CHL CELLS, Metabolic Activation: RAT, LIVER, S-9, SODIUM PHENOBARBITAL AND 5,6-BENZOFLAVONE): active; positive (structural changes)
mutagenic call [1]: active; positive
mutagenic call (Test System: AMES SALMONELLA TYPHIMURIUM, Strain/Indicator: TA98, Metabolic Activation: S-9, PHENOBARBITONE AND BETA-NAPHTHOFLAVONE, Method: STANDARD PLATE): active; positive
mutagenic call (Test System: E. COLI, Strain/Indicator: WP2 UVRA, Metabolic Activation: HAMSTER, LIVER, S-9, AROCLOR 1254, Method: STANDARD PLATE): inactive; negative
mutagenic call (Test System: E. COLI, Strain/Indicator: WP2 UVRA, Metabolic Activation: HAMSTER, LIVER, S-9, Method: STANDARD PLATE): inactive; negative
mutagenic call (Test System: E. COLI, Strain/Indicator: WP2 UVRA, Metabolic Activation: MOUSE, LIVER, S-9, AROCLOR 1254, Method: STANDARD PLATE): inactive; negative
mutagenic call (Test System: E. COLI, Strain/Indicator: WP2 UVRA, Metabolic Activation: MOUSE, LIVER, S-9, Method: STANDARD PLATE): inactive; negative
mutagenic call (Test System: E. COLI, Strain/Indicator: WP2 UVRA, Metabolic Activation: NONE, Method: STANDARD PLATE): inactive; negative
mutagenic call (Test System: E. COLI, Strain/Indicator: WP2 UVRA, Metabolic Activation: RAT, LIVER, S-9, AROCLOR 1254, Method: STANDARD PLATE): inactive; negative
mutagenic call (Test System: E. COLI, Strain/Indicator: WP2 UVRA, Metabolic Activation: RAT, LIVER, S-9, Method: STANDARD PLATE): inactive; negative
mutagenic call (Test System: MOUSE LYMPHOMA, Strain/Indicator: L5178Y (HPRT), Metabolic Activation: NONE, Method: SUSPENSION/PLATE): inactive; negative
mutagenic call (Test System: MOUSE LYMPHOMA, Strain/Indicator: L5178Y (TK+/TK-), Metabolic Activation: NONE, Method: SUSPENSION/PLATE): active; positive
mutagenic call (Test System: UDS RODENT HEPATOCYTES, Strain/Indicator: THY INCORP, Metabolic Activation: NONE, Method: IN VIVO): inactive; negative

O=C(/C=C/c1ccc([N+](=O)[O-])cc1)c1ccc([N+](=O)[O-])cc1
mutagenic call [1]: active; positive
mutagenic call [2]: inactive; negative
mutagenic call [3]: inactive; negative
mutagenic call [4]: inactive; negative

Oc1ccc2ccc3c4c(cc5ccc1c2c53)[C@@H](O)[C@H](O)C=C4
mutagenic call (Test System: AMES SALMONELLA TYPHIMURIUM, Strain/Indicator: TA97, Metabolic Activation: RAT, LIVER, S-9, AROCLOR 1254, Method: STANDARD PLATE): active; positive
mutagenic call [2]: active; positive
mutagenic call [4]: active; positive
mutagenic call (Test System: AMES SALMONELLA TYPHIMURIUM, Strain/Indicator: TA1537, Metabolic Activation: RAT, LIVER, S-9, AROCLOR 1254, Method: STANDARD PLATE): active; positive
mutagenic call (Test System: CHINESE HAMSTER V-79, Strain/Indicator: V-79/6-THIOGUANINE, Metabolic Activation: RAT, LIVER, S-9, AROCLOR 1254): active; positive

Cc1c2ccccc2cc2ccc3ccccc3c12
mutagenic call (Test System: AMES SALMONELLA TYPHIMURIUM, Strain/Indicator: TA98, Method: STANDARD PLATE): active; positive
mutagenic call (Test System: AMES SALMONELLA TYPHIMURIUM, Strain/Indicator: TA100, Metabolic Activation: RAT, INTACT HEPATOCYTES, AROCLOR 1254, Method: PREINCUBATION): active; positive
mutagenic call (Test System: AMES SALMONELLA TYPHIMURIUM, Strain/Indicator: TA100, Metabolic Activation: RAT, LIVER, S-9, PHENOBARBITAL, Method: STANDARD PLATE): active; positive
mutagenic call (Test System: AMES SALMONELLA TYPHIMURIUM, Strain/Indicator: TA100, Metabolic Activation: RAT, NADPH-FORTIFIED HOMOGENIZED HEPATOCYTES, AROCLOR 1254, Method: PREINCUBATION): active; positive
mutagenic call (Test System: AMES SALMONELLA TYPHIMURIUM, Strain/Indicator: TA100, Metabolic Activation: RAT, SONICATED HEPATOCYTES, AROCLOR 1254, Method: PREINCUBATION): active; positive
mutagenic call (Test System: AMES SALMONELLA TYPHIMURIUM, Strain/Indicator: TA100, Method: STANDARD PLATE): active; positive

CN(C)CCNC(=O)c1cc2ccccc2c2cccnc12
mutagenic call (Test System: AMES SALMONELLA TYPHIMURIUM, Strain/Indicator: TA1537, Metabolic Activation: NONE, Method: STANDARD PLATE): active; positive

c1ccc2c(c1)CC[C@H]1CCC[C@@H]3O[C@]213
mutagenic call [1]: inactive; negative
mutagenic call [3]: inactive; negative

COP(=S)(NC(C)C)Oc1ccccc1C(=O)OC(C)C (stereo unspecified)
mutagenic call [1]: inactive; negative
mutagenic call (Test System: AMES SALMONELLA TYPHIMURIUM, Strain/Indicator: TA98, Metabolic Activation: RAT, LIVER, S-9, PCB, Method: STANDARD PLATE): inactive; negative
mutagenic call [3]: inactive; negative
mutagenic call (Test System: AMES SALMONELLA TYPHIMURIUM, Strain/Indicator: TA100, Metabolic Activation: RAT, LIVER, S-9, PCB, Method: STANDARD PLATE): inactive; negative

CCOC(=O)C(=NNc1ccc(-c2ccc(NN=C(C(=O)OCC)C(=O)OCC)c(OC)c2)cc1OC)C(=O)OCC
mutagenic call (Test System: AMES SALMONELLA TYPHIMURIUM, Strain/Indicator: TA98, Metabolic Activation: HAMSTER, LIVER, S-9, Method: PREINCUBATION (PRIVAL METHOD)): inactive; negative

CC(C)N(CC(O)c1ccc(NS(C)(=O)=O)cc1)N=O (stereo unspecified)
mutagenic call (Test System: UDS HUMAN HEPATOCYTES, Strain/Indicator: THY INCORP, Metabolic Activation: NONE, Method: AUTORADIOGRAPHY): active; positive
mutagenic call (Test System: UDS RAT HEPATOCYTES, Strain/Indicator: THY INCORP, Metabolic Activation: NONE, Method: AUTORADIOGRAPHY): active; positive

Clc1cccc2ccccc12
mutagenic call (Test System: AMES SALMONELLA TYPHIMURIUM, Strain/Indicator: TA97, Metabolic Activation: HAMSTER, LIVER, S-9, AROCLOR 1254 (10%), Method: PREINCUBATION): inactive; negative
mutagenic call (Test System: AMES SALMONELLA TYPHIMURIUM, Strain/Indicator: TA97, Metabolic Activation: HAMSTER, LIVER, S-9, AROCLOR 1254 (30%), Method: PREINCUBATION): active; positive
mutagenic call (Test System: AMES SALMONELLA TYPHIMURIUM, Strain/Indicator: TA97, Metabolic Activation: NONE, Method: PREINCUBATION): inactive; negative
mutagenic call (Test System: AMES SALMONELLA TYPHIMURIUM, Strain/Indicator: TA97, Metabolic Activation: RAT, LIVER, S-9, AROCLOR 1254 (30%), Method: PREINCUBATION): inactive; negative
mutagenic call (Test System: AMES SALMONELLA TYPHIMURIUM, Strain/Indicator: TA98, Metabolic Activation: HAMSTER, LIVER, S-9, AROCLOR 1254 (30%), Method: PREINCUBATION): inactive; negative
mutagenic call [5]: inactive; negative
mutagenic call [1]: inactive; negative
mutagenic call (Test System: AMES SALMONELLA TYPHIMURIUM, Strain/Indicator: TA98, Metabolic Activation: RAT, LIVER, S-9, AROCLOR 1254 (30%), Method: PREINCUBATION): inactive; negative
mutagenic call [2]: inactive; negative
mutagenic call (Test System: AMES SALMONELLA TYPHIMURIUM, Strain/Indicator: TA100, Metabolic Activation: HAMSTER, LIVER, S-9, AROCLOR 1254 (10%), Method: PREINCUBATION): inactive; negative
mutagenic call (Test System: AMES SALMONELLA TYPHIMURIUM, Strain/Indicator: TA100, Metabolic Activation: HAMSTER, LIVER, S-9, AROCLOR 1254 (30%), Method: PREINCUBATION): active; positive
mutagenic call [6]: inactive; negative
mutagenic call [3]: inactive; negative
mutagenic call (Test System: AMES SALMONELLA TYPHIMURIUM, Strain/Indicator: TA100, Metabolic Activation: RAT, LIVER, S-9, AROCLOR 1254 (10 OR 30%), Method: PREINCUBATION): inactive; negative
mutagenic call [4]: inactive; negative
mutagenic call (Test System: AMES SALMONELLA TYPHIMURIUM, Strain/Indicator: TA1535, Metabolic Activation: HAMSTER, LIVER, S-9, AROCLOR 1254 (10 OR 30%), Method: PREINCUBATION): inactive; negative
mutagenic call (Test System: AMES SALMONELLA TYPHIMURIUM, Strain/Indicator: TA1535, Metabolic Activation: NONE, Method: PREINCUBATION): inactive; negative
mutagenic call (Test System: AMES SALMONELLA TYPHIMURIUM, Strain/Indicator: TA1535, Metabolic Activation: RAT, LIVER, S-9, AROCLOR 1254 (30%), Method: PREINCUBATION): inactive; negative

Cn1cnc2c3cccnc3ccc21
mutagenic call [5]: active; positive
mutagenic call (Test System: AMES SALMONELLA TYPHIMURIUM, Strain/Indicator: TA98, Metabolic Activation: RAT, LIVER, S-9, AROCLOR 1254, Method: PREINCUBATION): active; positive
mutagenic call [6]: active; positive
mutagenic call (Test System: AMES SALMONELLA TYPHIMURIUM, Strain/Indicator: TA100, Metabolic Activation: RAT, LIVER, S-9, AROCLOR 1254, Method: PREINCUBATION): active; positive
